Laboratory results as given in ChEMBL document CHEMBL1641567, “Oxidative inactivation of the lymphoid tyrosine phosphatase mediated by both general and active site directed NO donors” (Bioorg Med Chem Lett, 2011).
Calls of active or inactive are those of the source. The rule behind the calls is not given here. Starred links: 1 amine or outer side, 2 acyl side, 3 side chain; linkers in the order of their positions; H or OH if unused. Non-standard residues stand in square brackets, D forms with d. Residues, ends and D or L forms follow the SMILES beside them. X1 = O=NSCC[C@H](N[*:1])C(=O)[*:2]

Experiments:
[1] = target: T1, Tyrosine-protein phosphatase non-receptor type 22 (Homo sapiens) (UniProt Q9Y2R2); test: Oxidative inactivation of lymphoid tyrosine phosphatase at 1 to 100 uM by DiFMUP assay; conditions: TDE = time-dependent effect
T1 sequence (whole entry): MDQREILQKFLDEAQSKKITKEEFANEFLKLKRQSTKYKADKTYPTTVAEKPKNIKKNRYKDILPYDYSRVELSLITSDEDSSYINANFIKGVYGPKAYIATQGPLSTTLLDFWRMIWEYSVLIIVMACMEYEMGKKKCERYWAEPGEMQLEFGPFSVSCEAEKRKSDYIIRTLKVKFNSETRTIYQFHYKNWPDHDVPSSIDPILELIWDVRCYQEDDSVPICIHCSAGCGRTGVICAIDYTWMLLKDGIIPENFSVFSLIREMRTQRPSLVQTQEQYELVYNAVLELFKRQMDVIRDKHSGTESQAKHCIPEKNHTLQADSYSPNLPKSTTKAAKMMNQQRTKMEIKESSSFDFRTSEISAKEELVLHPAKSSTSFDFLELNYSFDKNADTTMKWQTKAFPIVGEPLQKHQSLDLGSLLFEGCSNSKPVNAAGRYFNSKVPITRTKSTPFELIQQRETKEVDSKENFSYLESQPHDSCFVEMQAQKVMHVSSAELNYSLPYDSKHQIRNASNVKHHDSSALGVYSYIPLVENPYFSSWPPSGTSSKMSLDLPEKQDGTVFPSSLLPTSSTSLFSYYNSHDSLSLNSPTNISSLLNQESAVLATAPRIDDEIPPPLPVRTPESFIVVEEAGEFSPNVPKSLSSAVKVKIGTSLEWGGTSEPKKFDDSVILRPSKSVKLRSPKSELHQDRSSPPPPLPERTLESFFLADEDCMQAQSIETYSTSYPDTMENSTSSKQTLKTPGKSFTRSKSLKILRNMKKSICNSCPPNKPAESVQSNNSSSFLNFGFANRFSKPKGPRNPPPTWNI

[2] = target: T1, Tyrosine-protein phosphatase non-receptor type 22 (Homo sapiens); test: (§1) Oxidative inactivation of lymphoid tyrosine phosphatase by DiFMUP assay
[3] = target: T2, Tyrosine-protein phosphatase non-receptor type 22 (Homo sapiens, UniProt Q9Y2R2); test: as §1
T2 sequence (Q9Y2R2 whole entry): T1 sequence (whole entry)

[4] = target: T1, Tyrosine-protein phosphatase non-receptor type 22 (Homo sapiens); test: Oxidative inactivation of lymphoid tyrosine phosphatase by DiFMUP assay in presence of L-cysteine
[5] = target: T1, Tyrosine-protein phosphatase non-receptor type 22 (Homo sapiens); test: Oxidative competitive inactivation of lymphoid tyrosine phosphatase by Lineweaver-Burk plot
[6] = target: T1, Tyrosine-protein phosphatase non-receptor type 22 (Homo sapiens); test: Oxidative inactivation of lymphoid tyrosine phosphatase assessed as NO release by ESI-MS spectrum

Activity [1]: tde
Activity [2]: Dose-dependent effect
Kinact [2]: 0.0472 min⁻¹
Ki [3]: 7 µM
Activity [4]: inactive
Activity [5]: Active
Activity [6]: Active
Compound: CC[C@H](C)[C@H](NC(=O)[C@H](CC(C)C)NC(=O)[C@H](CCCNC(=N)N)NC(=O)[C@H](C)NC(C)=O)C(=O)N[C@@H](CCC(=O)O)C(=O)N[C@@H](CC(=O)O)C(=O)N[C@@H](CC(N)=O)C(=O)N[C@@H](CCC(=O)O)C(=O)N[C@@H](CCSN=O)C(=O)N[C@H](C(=O)N[C@@H](C)C(=O)N[C@@H](CCCNC(=N)N)C(=O)N[C@@H](CCC(=O)O)C(=O)NCC(N)=O)[C@@H](C)O (Ac-ARLIEDNE[X1]TAREG-NH2)
